Data published in patent US20240307349A1, “METHODS FOR THE PREPARATION AND DOSE REGIMENS FOR USE OF SSTR4 AGONISTS AND SALTS THEREOF” (priority 2023, published 2024).

How the values were obtained:
Assay type in all cases: in vivo, human
[1] = Phase 1 study LXBB, single-dose pharmacokinetics in healthy subjects
Method: A total of 116 healthy subjects received at least one dose of Example 5 in phase 1 studies LXBB and LXBA.
The single-dose pharmacokinetics (PK) of Example 5 were evaluated at a dose range of from 20 to 400 mg.
Phase 1 Study LXBB was a first-in-human single-ascending dose/multiple-ascending dose (SAD/MAD) study in 89 healthy subjects (TABLE 1). […] One subject was discontinued due to the nondrug-related AE of pyrexia. In the SAD study, 1 subject each reported AEs of temporomandibular joint syndrome and tension headache. In the food effect study, 1 subject reported dry eye and nausea. In the Younger Group 10-day multiple-dose exposure study, the most commonly reported AEs were headache (2 subjects), diarrhea (2 subjects), nausea, rhinitis, and orthostatic hypotension (1 subject each). In the Elderly Group 10-day multiple-dose exposure study, the most commonly reported AEs were headache (5 subjects), pain in extremity (1 subject), vessel puncture site bruise (1 subject), dizziness (1 subject), and orthostatic hypotension (1 subject).

healthy subjects = assay: Phase 1 study LXBA, safety and tolerability in healthy subjects
Source text: The safety and tolerability of Example 5, were initially based on the 2 completed Phase 1 studies (LXBB and LXBA) and later confirmed with 3 completed Phase 2 studies (OA03, BP03, and NP03, as disclosed below).
Study LXBA is a completed study and consisted of 2 parts, Part A and Part B (TABLE 1). Part A of the study had 18 healthy subjects in 3 dosing cohorts, and Part B had 9 healthy subjects exposed to Example 5. […] In Part A, all treatment-emergent adverse events (TEAEs) were mild in severity except for 1 moderate event of presyncope. Constipation and insomnia (2 events each) were the only TEAEs reported in >1 subject. In Part B, the reported TEAEs were dysgeusia, nausea, and vomiting, which were all mild in severity.

participants with DPNP = assay: H0P-MC-NP03 Phase 2 placebo-controlled trial, diabetic peripheral neuropathic pain
Source text: The purpose of this study was to test whether Example 5 is efficacious in relieving diabetic peripheral neuropathic pain (DPNP). Data was collected to assess the safety and tolerability of Example 5 in this study population and previously discussed above. Pharmacokinetic properties and pharmacodynamic effects were also explored. The totality of data from this proof-of-concept study will assess the benefits and risks associated with Example 5.
NP03 was an 8-week, Phase 2, randomized, double-blind, placebo-controlled study that compared Example 5 versus placebo in participants with DPNP.
Participants received either Example 5 or placebo. Based on tolerability, participants received up to a maximum of 3 capsules orally (each capsule was 200 mg), twice daily, approximately every 12 hours, for a total dose of 600 mg.
The primary clinical question of interest was, “What is the treatment difference between Example 5 and placebo assessed using mean change from baseline to endpoint (Week 8) for average pain intensity (API) as measured by the Numeric Rating Scale (NRS) in participants with diabetic peripheral neuropathic pain (DPNP) regardless of initiation of rescue medication or other allowed concomitant medication and assuming that they would have continued initially randomized treatment condition?”
Participants were randomly assigned 2:1 to Example 5 or placebo. Based on tolerability, participants could take up to a maximum of 3 capsules orally (each capsule was 200 mg), twice daily (BID), approximately every 12 hours, for a total dose of 600 mg BID.
The protocol allowed changes to the dose for individual participants, but the maximum daily dose should not exceed 600 mg BID. The starting dose level was 200 mg BID. Decisions to change the dose level were made by the investigator in discussion with the participants based on the adverse events (AEs) reported for tolerability. The medical monitor was contacted as needed. All changes in dose level had to occur before the end of Visit 4 (Study Week 2).
NP03 was an 8-week, multicenter, randomized, DB, placebo-controlled, Phase 2, proof-of-concept study to evaluate Example 5 for the treatment of DPNP. Participants were randomly assigned 2:1 to Example 5 or placebo. A total of 68 participants enrolled into the NP03 ISA, with 45 participants randomly assigned to Example 5, and 23 participants assigned to placebo. The safety population consisted of the 68 participants who received at least 1 dose of study intervention and included all participants in the enrolled population. Using a titration scheme, Example 5 was administered orally as a maximum of 3 capsule (200 mg per capsule) for a total dose of 600 mg approximately every 12 hours, with or without food. Fifty percent of participants completed the BD treatment phase.

Structure (SMILES): Cc1cccnc1OCC(C)(C)NC(=O)[C@H]1[C@@H]2CNC[C@@H]21.O=C(O)C(O)C(O)C(=O)O [Example 5, (1R,5S,6r)-N-(2-Methyl-1-((3-methylpyridin-2-yl)oxy)propan-2-yl)-3-azabicyclo[3.1.0]hexane-6-carboxamide L-tartrate sesquihydrate]
- Tmax ([1]; human, in vivo): 2 to 3 h
- CL renal ([1]; human, in vivo, single dose, 20 to 400 mg, read-out: Renal clearance (converted)): ~167 mL/min
- half-life ([1]; human, in vivo, single dose, 20 to 400 mg, read-out: mean terminal half-life (t1/2)): 11 to 13 h
- dose dependence of plasma concentrations ([1]; single dose, 20 to 400 mg): generally increased in a dose-proportional manner
- inter-subject variability coefficient of variation of plasma concentrations ([1]; single dose, 20 to 400 mg): < 25%
- tolerability (healthy subjects; Part A 18 and Part B 9 healthy subjects): generally well tolerated
- deaths, SAEs, or discontinuations due to AEs (healthy subjects; human, in vivo): No deaths, SAEs, or discontinuations due to AEs have been reported
- severity of AEs (healthy subjects; human, in vivo): majority of AEs were of mild severity
- Mean Change of Average Pain Intensity, Weekly Average of NRS (participants with DPNP; 400 mg BID, week 1, n = 8): −0.74
- Observed Mean of Average Pain Intensity, Weekly Average of NRS (participants with DPNP; 400 mg BID, week 1, n = 8): 5.76
- Mean Change of Average Pain Intensity, Weekly Average of NRS (participants with DPNP; 400 mg BID, week 2, n = 9): −1.62
- Observed Mean of Average Pain Intensity, Weekly Average of NRS (participants with DPNP; 400 mg BID, week 2, n = 9): 4.90
- Mean Change of Average Pain Intensity, Weekly Average of NRS (participants with DPNP; 400 mg BID, week 3, n = 9): −2.12
- Observed Mean of Average Pain Intensity, Weekly Average of NRS (participants with DPNP; 400 mg BID, week 3, n = 9): 4.41
- Mean Change of Average Pain Intensity, Weekly Average of NRS (participants with DPNP; 400 mg BID, week 4, n = 6): −2.05
- Observed Mean of Average Pain Intensity, Weekly Average of NRS (participants with DPNP; 400 mg BID, week 4, n = 6): 5.46
- Mean Change of Average Pain Intensity, Weekly Average of NRS (participants with DPNP; 400 mg BID, week 5, n = 4): −3.37
- Observed Mean of Average Pain Intensity, Weekly Average of NRS (participants with DPNP; 400 mg BID, week 5, n = 4): 4.66
- Mean Change of Average Pain Intensity, Weekly Average of NRS (participants with DPNP; 400 mg BID, week 6, n = 5): −2.72
- Observed Mean of Average Pain Intensity, Weekly Average of NRS (participants with DPNP; 400 mg BID, week 6, n = 5): 4.15
- Mean Change of Average Pain Intensity, Weekly Average of NRS (participants with DPNP; 400 mg BID, week 7, n = 4): −3.34
- Observed Mean of Average Pain Intensity, Weekly Average of NRS (participants with DPNP; 400 mg BID, week 7, n = 4): 2.96
- Mean Change of Average Pain Intensity, Weekly Average of NRS (participants with DPNP; 400 mg BID, week 8, n = 4): −3.39
- Observed Mean of Average Pain Intensity, Weekly Average of NRS (participants with DPNP; 400 mg BID, week 8, n = 4): 4.17
- Mean Change of Average Pain Intensity, Weekly Average of NRS (participants with DPNP; 600 mg BID, week 1, n = 30): −0.72
- Observed Mean of Average Pain Intensity, Weekly Average of NRS (participants with DPNP; 600 mg BID, week 1, n = 30): 5.77
- Mean Change of Average Pain Intensity, Weekly Average of NRS (participants with DPNP; 600 mg BID, week 2, n = 29): −1.59
- Observed Mean of Average Pain Intensity, Weekly Average of NRS (participants with DPNP; 600 mg BID, week 2, n = 29): 4.91
- Mean Change of Average Pain Intensity, Weekly Average of NRS (participants with DPNP; 600 mg BID, week 3, n = 23): −2.09
- Observed Mean of Average Pain Intensity, Weekly Average of NRS (participants with DPNP; 600 mg BID, week 3, n = 23): 4.82
- Mean Change of Average Pain Intensity, Weekly Average of NRS (participants with DPNP; 600 mg BID, week 4, n = 24): −2.18
- Observed Mean of Average Pain Intensity, Weekly Average of NRS (participants with DPNP; 600 mg BID, week 4, n = 24): 4.64
- Mean Change of Average Pain Intensity, Weekly Average of NRS (participants with DPNP; 600 mg BID, week 5, n = 21): −2.43
- Observed Mean of Average Pain Intensity, Weekly Average of NRS (participants with DPNP; 600 mg BID, week 5, n = 21): 4.18
- Mean Change of Average Pain Intensity, Weekly Average of NRS (participants with DPNP; 600 mg BID, week 6, n = 19): −2.37
- Observed Mean of Average Pain Intensity, Weekly Average of NRS (participants with DPNP; 600 mg BID, week 6, n = 19): 4.26
- Mean Change of Average Pain Intensity, Weekly Average of NRS (participants with DPNP; 600 mg BID, week 7, n = 17): −2.64
- Observed Mean of Average Pain Intensity, Weekly Average of NRS (participants with DPNP; 600 mg BID, week 7, n = 17): 3.78
- Mean Change of Average Pain Intensity, Weekly Average of NRS (participants with DPNP; 600 mg BID, week 8, n = 16): −2.74
- Observed Mean of Average Pain Intensity, Weekly Average of NRS (participants with DPNP; 600 mg BID, week 8, n = 16): 3.79
- Mean change from baseline assessment to endpoint for API as measured using the NRS (participants with DPNP; 8 weeks after initial treatment administration, up to 600 mg Q12H, n = 45): −2.75
- most secondary endpoints compared with placebo (participants with DPNP; DPNP): greater numerical improvements
- decrease in API measured by NRS, 400 mg dosing regimen compared with the 600 mg dosing regimen (participants with DPNP; Week 8): greater decrease in API measured by NRS in the 400 mg dosing regimen
- primary objective: posterior probability for change from baseline in API versus placebo (participants with DPNP; Week 8, DPNP): met the prespecified threshold
- Mean change from baseline assessment to endpoint for worst pain intensity as measured by weekly NRS (participants with DPNP; Week 8, n = 45): −3.06
- Mean change from baseline assessment to endpoint on the VAS for pain (participants with DPNP; Week 8, n = 45): −30.20
- Mean change from baseline to endpoint for the BPI-SFM (participants with DPNP; Week 8, n = 45): −2.31
- Overall improvement to endpoint as measured by PGIC (participants with DPNP; Week 8, n = 45): 2.3
